Data from ChEMBL document CHEMBL1145007 (J Med Chem, 2003).

Columns and labels:
Acetylcholinesterase [1] = target: T1, Acetylcholinesterase (Bos taurus, UniProt P23795)
T1 sequence (P23795 whole entry): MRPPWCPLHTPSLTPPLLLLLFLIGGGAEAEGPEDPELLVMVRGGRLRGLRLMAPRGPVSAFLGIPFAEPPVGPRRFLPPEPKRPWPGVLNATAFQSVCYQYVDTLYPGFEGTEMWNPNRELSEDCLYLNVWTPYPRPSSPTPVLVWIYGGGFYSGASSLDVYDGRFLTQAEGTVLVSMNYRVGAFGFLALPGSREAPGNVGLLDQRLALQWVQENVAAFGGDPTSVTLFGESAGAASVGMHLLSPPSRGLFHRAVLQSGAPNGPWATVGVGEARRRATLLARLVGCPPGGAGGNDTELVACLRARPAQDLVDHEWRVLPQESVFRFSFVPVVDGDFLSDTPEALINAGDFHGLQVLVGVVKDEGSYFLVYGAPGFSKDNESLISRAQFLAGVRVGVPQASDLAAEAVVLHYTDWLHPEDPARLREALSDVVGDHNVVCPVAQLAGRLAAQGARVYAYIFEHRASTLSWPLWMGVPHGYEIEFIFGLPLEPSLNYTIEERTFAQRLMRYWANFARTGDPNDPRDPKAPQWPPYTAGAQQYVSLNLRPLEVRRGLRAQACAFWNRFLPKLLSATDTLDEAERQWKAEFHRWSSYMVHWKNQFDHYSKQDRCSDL
Description: Inhibition of fetal Bovine serum AChE

Butyrylcholinesterase = Butyrylcholinesterase (Equus caballus, UniProt Q9N1N9)
Description: Inhibition of Equine Butyrylcholinesterase

Acetylcholinesterase [2] = target: Acetylcholinesterase (Homo sapiens, UniProt P22303); assay: Inhibitory activity against human AChE
Chain of Acetylcholinesterase (Homo sapiens, UniProt P22303) (P22303 whole entry): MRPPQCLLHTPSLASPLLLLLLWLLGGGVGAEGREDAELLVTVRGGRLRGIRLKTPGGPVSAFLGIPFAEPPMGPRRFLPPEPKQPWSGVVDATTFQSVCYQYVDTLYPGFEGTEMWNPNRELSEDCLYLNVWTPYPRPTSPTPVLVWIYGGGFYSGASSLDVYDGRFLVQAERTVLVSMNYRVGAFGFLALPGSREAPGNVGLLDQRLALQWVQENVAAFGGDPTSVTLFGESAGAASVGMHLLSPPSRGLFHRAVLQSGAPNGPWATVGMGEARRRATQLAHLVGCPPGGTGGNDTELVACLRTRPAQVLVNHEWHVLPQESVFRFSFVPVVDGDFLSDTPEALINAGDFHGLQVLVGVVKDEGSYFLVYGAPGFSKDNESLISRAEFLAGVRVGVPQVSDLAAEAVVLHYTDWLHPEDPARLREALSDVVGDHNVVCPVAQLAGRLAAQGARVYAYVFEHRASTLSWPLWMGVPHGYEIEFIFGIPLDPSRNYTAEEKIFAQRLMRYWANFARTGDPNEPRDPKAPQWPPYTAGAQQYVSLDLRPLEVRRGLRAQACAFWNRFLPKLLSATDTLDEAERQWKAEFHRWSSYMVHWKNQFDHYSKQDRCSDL

Chain of Butyrylcholinesterase (Q9N1N9 whole entry): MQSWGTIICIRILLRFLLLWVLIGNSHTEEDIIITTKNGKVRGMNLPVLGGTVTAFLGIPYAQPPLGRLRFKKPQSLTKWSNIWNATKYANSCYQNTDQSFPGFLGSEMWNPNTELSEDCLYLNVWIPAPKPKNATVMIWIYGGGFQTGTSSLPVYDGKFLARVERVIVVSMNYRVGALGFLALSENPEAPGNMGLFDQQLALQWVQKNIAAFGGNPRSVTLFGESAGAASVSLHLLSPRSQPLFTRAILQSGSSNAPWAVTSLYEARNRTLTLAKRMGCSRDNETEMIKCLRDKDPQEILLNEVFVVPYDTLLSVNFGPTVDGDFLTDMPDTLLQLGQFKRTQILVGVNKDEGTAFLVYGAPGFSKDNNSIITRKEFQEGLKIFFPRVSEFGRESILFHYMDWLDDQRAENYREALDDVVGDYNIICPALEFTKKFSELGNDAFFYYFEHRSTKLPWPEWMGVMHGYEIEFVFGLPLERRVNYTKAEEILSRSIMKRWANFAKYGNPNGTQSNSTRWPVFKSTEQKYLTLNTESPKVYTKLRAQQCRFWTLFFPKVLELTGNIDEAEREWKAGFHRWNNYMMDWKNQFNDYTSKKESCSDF

Compound | Ki (Acetylcholinesterase [1]) | Ki (Butyrylcholinesterase) | Ki (Acetylcholinesterase [2])
c1ccc2c(NCCCCCSc3c4c(nc5ccccc35)CCCC4)c3c(nc2c1)CCCC3 | 210 nM | 10 nM | –
CN(CCCNc1c2c(nc3ccccc13)CCCC2)CCCNc1c2c(nc3ccccc13)CCCC2 | 0.06 nM | 6 nM | –
c1ccc2c(NCCCCCCCCSc3c4c(nc5ccccc35)CCCC4)c3c(nc2c1)CCCC3 | 250 nM | 0.4 nM | –
CCC1=CC2Cc3nc4cc(Cl)ccc4c(N)c3[C@@H](C1)C2 [HUPRINE X] | – | – | 0.026 nM
CN(CCCNc1c2c(nc3ccccc13)CCCC2)CCCNc1c2c(nc3cc(Cl)cc(Cl)c13)CCCC2 | 3.7 nM | 11 nM | –
CC(=O)N(CCCNc1c2c(nc3ccccc13)CCCC2)CCCNc1c2c(nc3ccccc13)CCCC2 | 1500 nM | 2 nM | –
